Active and inactive are the calls of the source. The rule behind the calls is not given here. Square brackets hold non-standard residues; d marks the D form. Peptide text beside a SMILES is read from it. * marks the point of attachment. Dolaproine = CO[C@@H]([C@@H]1CCCN1)[C@@H](C)C(=O)O; Dil = CC[C@H](C)[C@H](NC)[C@@H](CC(=O)O)OC; X1 = C[C@@H](N*)[C@@H](O)c1ccccc1; NMeV = CN[C@H](C(=O)O)C(C)C
Assays:
HeLa [1] = experiment: Cytotoxicity against human HeLa cells assessed as reduction in cell viability incubated for 72 hrs in presence of TTR by CellTiter-96 assay; assay type: functional, cell-based
[2] = Drug concentration in CD-1 mouse at 2.5 mg/kg,ip measured upto 24 hrs by LC-MS/MS analysis; assay type: ADME, organism-based; details: in vivo
[3] = Drug metabolism in human liver assessed as cathepsin B mediated hydrolysis MMAE metabolite formation measured after 15 mins by HPLC/LC-MS/MS analysis; assay type: ADME, tissue-based; details: 0.25 h
[4] = Toxicity in mouse assessed as maximum tolerated dose administered intraperitoneally measured upto 21 days for every 3 days; details: in vivo, route ip, time < 21 day
[5] = Stability of compound in human serum at 37 degreeC incubated for 24 hrs by RP-HPLC analysis; assay type: ADME, cell-free
HeLa [6] = experiment: Cytotoxicity against human HeLa cells assessed as reduction in cell viability incubated for 72 hrs by CellTiter-96 assay; assay type: functional, cell-based
[7] = Toxicity in CD-1 mouse assessed as body weight loss at 2.5 mg/kg,ip administrated upto 20 days for every 5 days; assay type: organism-based; details: in vivo, 480 h, time < 20 day
[8] = Stability of compound in PBS at 37 degreeC incubated for 24 hrs by RP-HPLC analysis; assay type: physicochemical; details: buffer
LNCaP [9] = experiment: Cytotoxicity against human LNCaP cells assessed as reduction in cell viability incubated for 72 hrs in presence of TTR by CellTiter-96 assay; assay type: functional, cell-based
[10] = Stability of compound in mouse serum at 37 degreeC incubated for 24 hrs by RP-HPLC analysis; assay type: ADME, cell-free; details: read-out: Stability
DU-145 [11] = experiment: Cytotoxicity against human DU-145 cells assessed as reduction in cell viability incubated for 72 hrs by CellTiter-96 assay; assay type: functional, cell-based; details: DU-145, 72 h
DU-145 [12] = experiment: Cytotoxicity against human DU-145 cells assessed as reduction in cell viability incubated for 72 hrs in presence of TTR by CellTiter-96 assay; assay type: functional, cell-based; details: DU-145, 72 h
LNCaP [13] = experiment: Cytotoxicity against human LNCaP cells assessed as reduction in cell viability incubated for 72 hrs by CellTiter-96 assay; assay type: functional, cell-based
[14] = Toxicity in mouse assessed as increase in body weight at 6.2 mg/kg,ip measured upto 21 days for every 3 days; assay type: organism-based; details: in vivo, 504 h, time < 21 day
LNCaP [15] = experiment: Antitumor activity against human LNCaP cells xenografted mouse assessed as reduction in tumor relapse at 3.1 mg/kg,ip administrated upto 35 days for every 5 days; assay type: functional, organism-based; details: time <= 35.0 day
[16] = Drug metabolism in human liver assessed as cathepsin B mediated hydrolysis MMAE metabolite formation measured after 30 mins by HPLC/LC-MS/MS analysis; assay type: ADME, tissue-based; details: 0.5 h
LNCaP [17] = experiment: Antitumor activity against human LNCaP cells xenografted mouse assessed as reduction in tumor growth at 3.1 mg/kg,ip administrated upto 35 days for every 5 days; assay type: functional, organism-based; details: time <= 35.0 day
Transthyretin [18] = molecular target: T1, Transthyretin (Homo sapiens, UniProt P02766); experiment: Binding affinity to human serum TTR assessed as target occupancy incubated for 6 hrs by fluorescence polarization assay
[19] = Toxicity in mouse xenografted with human LNCaP cells assessed as increase in body weight at 3.1 mg/kg,ip administrated upto 35 days for every 5 days; assay type: organism-based; details: in vivo, 840 h, time < 35 day
[20] = Drug concentration in CD-1 mouse at 3 mg/kg,ip measured upto 24 hrs by LC-MS/MS analysis; assay type: ADME, organism-based; details: in vivo
[21] = molecular target: Transthyretin (Mus musculus) (UniProt P07309); experiment: Binding affinity to mouse serum TTR assessed as target occupancy incubated for 1 hrs by fluorescence polarization assay
[22] = Toxicity in mouse xenografted with human LNCaP cells assessed as mouse survival time at 3.1 mg/kg,ip administrated upto 35 days for every 5 days; assay type: organism-based; details: in vivo, 840 h, time < 35 day
[23] = Toxicity in CD-1 mouse assessed as body weight loss at 3.1 mg/kg,ip administrated upto 20 days for every 5 days; assay type: organism-based; details: in vivo, 480 h, time < 20 day
Transthyretin [24] = molecular target: T1, Transthyretin; experiment: Binding affinity to human TTR incubated for 20 mins by fluorescence polarization assay
[25] = Toxicity in CD-1 mouse assessed as body weight loss at 0.4 mg/kg,ip administrated upto 20 days for every 5 days; assay type: organism-based; details: in vivo, 480 h, time < 20 day
[26] = Toxicity in mouse xenografted with human LNCaP cells assessed as change in body weight at 10 mg/kg,ip administrated upto 35 days for every 5 days; assay type: organism-based; details: in vivo, 840 h, time < 35 day
[27] = Toxicity in mouse assessed as reduction in body weight at 40 mg/kg,ip measured upto 21 days for every 3 days; assay type: organism-based; details: in vivo, 504 h, time < 21 day
[28] = Toxicity in mouse assessed as reduction in body weight at 20 mg/kg,ip measured for 21 days by every 3 days; assay type: organism-based; details: in vivo, 504 h, time 21 day

| Activity (Transthyretin [18]) | SMILES | IC50 (HeLa [1]) | MTD at 504 h [4] | Stability [5] | IC50 (HeLa [6]) | Stability [8] | IC50 (LNCaP [9]) | remaining at 24 h [10] | IC50 (DU-145 [11]) | IC50 (DU-145 [12]) | IC50 (LNCaP [13]) | Kd (Transthyretin [24]) | further results |
| --- | --- | --- | --- | --- | --- | --- | --- | --- | --- | --- | --- | --- | --- |
|  | C#CCC(NC(=O)CCSC1CC(=O)N(CCCCCC(=O)N[C@@H](CCC(=O)O)C(=O)N[C@H](C(=O)N[C@@H](CCCNC(N)=O)C(=O)Nc2ccc(COC(=O)N(C)[C@H](C(=O)N[C@H](C(=O)N(C)[C@@H]([C@@H](C)CC)[C@@H](CC(=O)N3CCC[C@H]3[C@H](OC)[C@@H](C)C(=O)N[C@H](C)[C@@H](O)c3ccccc3)OC)C(C)C)C(C)C)cc2)C(C)C)C1=O)C(=O)NCCCCCC(=O)NCCCC[C@H](NC(=O)N[C@@H](CCC(=O)O)C(=O)O)C(=O)O (some centres not stated) | 525 nM | 5 mg/kg | Stable | 551 nM | Stable | 0.81 nM | 64.1% | 1050 nM | 1020 nM | 0.83 nM |  | Drug uptake [2]: Active; Drug metabolism [3]: Metabolite_Detected; Activity [7]: Non-Toxic; Activity [14]: Toxic |
|  | CC[C@H](C)[C@@H]([C@@H](CC(=O)N1CCC[C@H]1[C@H](OC)[C@@H](C)C(=O)N[C@H](C)[C@@H](O)c1ccccc1)OC)N(C)C(=O)[C@@H](NC(=O)[C@@H](NC)C(C)C)C(C)C (H-[NMeV]V[Dil][Dolaproine]-X1) | 1 nM |  |  | 1.1 nM |  | 0.71 nM |  | 0.55 nM | 0.62 nM | 0.79 nM |  | Activity [25]: Toxic |
| 80.7% | Cc1n[nH]c(C)c1CCCOc1cc(OCCCCCCNCCOCCOCCN=[N+]=[N-])cc(C(=O)O)c1 |  |  |  |  |  |  |  |  |  |  | 74.3 nM |  |
| 49.5% | O=C(O)c1ccc2nc(-c3cc(Cl)cc(Cl)c3)oc2c1 |  |  |  |  |  |  |  |  |  |  |  |  |
|  | CC(=O)O[C@@]12CO[C@@H]1C[C@H](O)[C@@]1(C)C(=O)[C@H](O)C3=C(C)[C@@H](OC(=O)[C@H](O)[C@@H](NC(=O)OC(C)(C)C)c4ccccc4)C[C@@](O)([C@@H](OC(=O)c4ccccc4)[C@H]21)C3(C)C [DOCETAXEL ANHYDROUS] |  |  |  |  |  |  |  |  |  |  |  | Activity [26]: Non-Toxic; Activity [27]: Toxic; Activity [28]: Toxic |

| SMILES | Activity (Transthyretin [18]) | IC50 (HeLa [1]) | MTD at 504 h [4] | Stability [5] | IC50 (HeLa [6]) | Stability [8] | IC50 (LNCaP [9]) | remaining at 24 h [10] | IC50 (DU-145 [11]) | IC50 (DU-145 [12]) | IC50 (LNCaP [13]) | Kd (Transthyretin [24]) | further results |
| --- | --- | --- | --- | --- | --- | --- | --- | --- | --- | --- | --- | --- | --- |
| CC[C@H](C)[C@@H]([C@@H](CC(=O)N1CCC[C@H]1[C@H](OC)[C@@H](C)C(=O)N[C@H](C)[C@@H](O)c1ccccc1)OC)N(C)C(=O)[C@@H](NC(=O)[C@H](C(C)C)N(C)C(=O)OCc1ccc(NC(=O)[C@H](CCCNC(N)=O)NC(=O)[C@@H](NC(=O)[C@H](CCC(=O)O)NC(=O)CCCCCN2C(=O)CC(SCCC(=O)NC(Cc3cn(CCOCCOCCNCCCCCCOc4cc(OCCCc5c(C)n[nH]c5C)cc(C(=O)O)c4)nn3)C(=O)NCCCCCC(=O)NCCCC[C@H](NC(=O)N[C@@H](CCC(=O)O)C(=O)O)C(=O)O)C2=O)C(C)C)cc1)C(C)C (some centres not stated) | 67.5% | 816 nM | 3.1 mg/kg | Stable | 259 nM | Stable | 1.19 nM | 71.3% | 421 nM | 1250 nM | 1.02 nM | 448 nM | Activity (LNCaP [15]): Active; Drug metabolism [16]: Metabolite_Detected; Activity (LNCaP [17]): Active; Activity [19]: Toxic; Drug uptake [20]: Active; Activity [21]: Active; Survival [22]: 100 days; Activity [23]: Non-Toxic |

Reference: ChEMBL document CHEMBL5150030, “Enhancing the Safety and Efficacy of PSMA-Based Small-Molecule Drug Conjugates by Linker Stabilization and Conjugation to Transthyretin Binding Ligand” (J Med Chem, 2022)
